Laboratory results: patent US20260193264A1, “BENZOYPARAZINE PYRAZINES AND THEIR USES” (FOGHORN THERAPEUTICS INC., priority 2022, published 2026)

Assays:
[1] = molecular target: T1, HiBit-BRG1 fusion protein in stable HeLa cell line expressing HiBit-BRG1 and LgBit (Homo sapiens, UniProt P51532); assay: HiBiT-BRG1 cell-based degradation assay (Nano-Glo HiBiT, 24 h); details: HeLa HiBit-BRG1/LgBit cells; for Dmax: top dose 30 μM, read-out: BRG1 HiBit Degradation Maximum (%); for DC50: read-out: BRMG1 HiBit Degradation IC50
T1 construct: expressed in transfected cells
Method in brief: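 Stable HeLa line co-expressing HiBiT-BRG1 and LgBiT, compound-treated 24 h; luminescence read after Nano-Glo HiBiT lytic reagent. % degradation normalised between DMSO (high control) and 2 μM reference BRM/BRG1 degrader (low control).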

[2] = molecular target: T2, HiBiT-BRM fusion protein in stable HeLa cell line (Homo sapiens, UniProt P51531); assay: HiBiT-BRM cell-based degradation assay (Nano-Glo HiBiT Lytic Detection, 24 h); design: DC50: scale not given here; details: HeLa HiBiT-BRM cells; for DC50: read-out: BRM HiBit Degradation IC50; for BRM HiBit Degradation Maximum (%): top dose 30 μM
T2 construct: expressed in transfected cells
Method in brief: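 Stable HiBiT-BRM HeLa cells treated 24 h with 10-point 3-fold dilutions, top final dose 30 μM, in duplicate. Luminescence read after lytic LgBiT reagent. Percent degradation was normalised to DMSO (high control) and 2 μM reference BRM/BRG1 degrader (low control).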

T2 sequence (P51531 whole entry, the tested form may be a part): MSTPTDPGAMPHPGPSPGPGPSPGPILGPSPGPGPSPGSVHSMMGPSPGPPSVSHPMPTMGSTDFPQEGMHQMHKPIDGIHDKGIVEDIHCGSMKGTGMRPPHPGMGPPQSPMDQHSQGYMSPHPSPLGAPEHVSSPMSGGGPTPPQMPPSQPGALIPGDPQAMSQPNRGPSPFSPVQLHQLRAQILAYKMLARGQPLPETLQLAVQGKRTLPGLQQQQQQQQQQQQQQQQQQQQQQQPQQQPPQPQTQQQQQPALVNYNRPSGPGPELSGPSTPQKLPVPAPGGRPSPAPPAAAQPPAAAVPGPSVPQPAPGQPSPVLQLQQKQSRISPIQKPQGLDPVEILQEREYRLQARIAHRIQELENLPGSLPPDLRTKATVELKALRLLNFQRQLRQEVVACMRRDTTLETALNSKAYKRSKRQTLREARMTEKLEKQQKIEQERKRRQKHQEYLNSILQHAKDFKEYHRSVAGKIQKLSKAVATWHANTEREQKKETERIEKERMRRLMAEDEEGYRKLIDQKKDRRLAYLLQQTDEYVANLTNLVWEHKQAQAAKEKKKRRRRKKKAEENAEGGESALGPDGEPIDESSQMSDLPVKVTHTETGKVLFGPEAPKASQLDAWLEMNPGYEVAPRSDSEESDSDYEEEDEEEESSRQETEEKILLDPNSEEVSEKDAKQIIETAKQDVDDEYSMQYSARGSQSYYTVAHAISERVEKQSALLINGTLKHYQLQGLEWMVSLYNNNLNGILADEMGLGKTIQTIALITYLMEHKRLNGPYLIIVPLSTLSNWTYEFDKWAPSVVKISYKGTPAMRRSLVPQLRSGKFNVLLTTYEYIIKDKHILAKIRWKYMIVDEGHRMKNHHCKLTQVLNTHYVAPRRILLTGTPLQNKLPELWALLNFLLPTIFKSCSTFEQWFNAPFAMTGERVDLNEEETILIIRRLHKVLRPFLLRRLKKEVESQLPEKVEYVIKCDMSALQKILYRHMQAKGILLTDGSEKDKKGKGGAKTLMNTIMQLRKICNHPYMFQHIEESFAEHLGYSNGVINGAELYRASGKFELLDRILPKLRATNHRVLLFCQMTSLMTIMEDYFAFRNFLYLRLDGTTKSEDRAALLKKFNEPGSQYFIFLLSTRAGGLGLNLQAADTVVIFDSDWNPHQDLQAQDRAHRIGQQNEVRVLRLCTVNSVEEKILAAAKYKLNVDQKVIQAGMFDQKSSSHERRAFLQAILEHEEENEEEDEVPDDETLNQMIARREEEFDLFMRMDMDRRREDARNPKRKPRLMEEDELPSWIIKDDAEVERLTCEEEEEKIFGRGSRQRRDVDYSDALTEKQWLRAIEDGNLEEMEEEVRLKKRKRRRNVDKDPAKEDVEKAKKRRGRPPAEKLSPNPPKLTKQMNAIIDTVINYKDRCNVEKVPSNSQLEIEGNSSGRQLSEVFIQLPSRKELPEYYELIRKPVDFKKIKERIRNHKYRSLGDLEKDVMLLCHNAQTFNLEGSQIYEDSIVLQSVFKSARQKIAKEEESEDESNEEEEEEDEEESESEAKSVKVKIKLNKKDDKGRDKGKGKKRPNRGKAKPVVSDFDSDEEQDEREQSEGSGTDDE
T1 sequence (P51532 whole entry, the tested form may be a part): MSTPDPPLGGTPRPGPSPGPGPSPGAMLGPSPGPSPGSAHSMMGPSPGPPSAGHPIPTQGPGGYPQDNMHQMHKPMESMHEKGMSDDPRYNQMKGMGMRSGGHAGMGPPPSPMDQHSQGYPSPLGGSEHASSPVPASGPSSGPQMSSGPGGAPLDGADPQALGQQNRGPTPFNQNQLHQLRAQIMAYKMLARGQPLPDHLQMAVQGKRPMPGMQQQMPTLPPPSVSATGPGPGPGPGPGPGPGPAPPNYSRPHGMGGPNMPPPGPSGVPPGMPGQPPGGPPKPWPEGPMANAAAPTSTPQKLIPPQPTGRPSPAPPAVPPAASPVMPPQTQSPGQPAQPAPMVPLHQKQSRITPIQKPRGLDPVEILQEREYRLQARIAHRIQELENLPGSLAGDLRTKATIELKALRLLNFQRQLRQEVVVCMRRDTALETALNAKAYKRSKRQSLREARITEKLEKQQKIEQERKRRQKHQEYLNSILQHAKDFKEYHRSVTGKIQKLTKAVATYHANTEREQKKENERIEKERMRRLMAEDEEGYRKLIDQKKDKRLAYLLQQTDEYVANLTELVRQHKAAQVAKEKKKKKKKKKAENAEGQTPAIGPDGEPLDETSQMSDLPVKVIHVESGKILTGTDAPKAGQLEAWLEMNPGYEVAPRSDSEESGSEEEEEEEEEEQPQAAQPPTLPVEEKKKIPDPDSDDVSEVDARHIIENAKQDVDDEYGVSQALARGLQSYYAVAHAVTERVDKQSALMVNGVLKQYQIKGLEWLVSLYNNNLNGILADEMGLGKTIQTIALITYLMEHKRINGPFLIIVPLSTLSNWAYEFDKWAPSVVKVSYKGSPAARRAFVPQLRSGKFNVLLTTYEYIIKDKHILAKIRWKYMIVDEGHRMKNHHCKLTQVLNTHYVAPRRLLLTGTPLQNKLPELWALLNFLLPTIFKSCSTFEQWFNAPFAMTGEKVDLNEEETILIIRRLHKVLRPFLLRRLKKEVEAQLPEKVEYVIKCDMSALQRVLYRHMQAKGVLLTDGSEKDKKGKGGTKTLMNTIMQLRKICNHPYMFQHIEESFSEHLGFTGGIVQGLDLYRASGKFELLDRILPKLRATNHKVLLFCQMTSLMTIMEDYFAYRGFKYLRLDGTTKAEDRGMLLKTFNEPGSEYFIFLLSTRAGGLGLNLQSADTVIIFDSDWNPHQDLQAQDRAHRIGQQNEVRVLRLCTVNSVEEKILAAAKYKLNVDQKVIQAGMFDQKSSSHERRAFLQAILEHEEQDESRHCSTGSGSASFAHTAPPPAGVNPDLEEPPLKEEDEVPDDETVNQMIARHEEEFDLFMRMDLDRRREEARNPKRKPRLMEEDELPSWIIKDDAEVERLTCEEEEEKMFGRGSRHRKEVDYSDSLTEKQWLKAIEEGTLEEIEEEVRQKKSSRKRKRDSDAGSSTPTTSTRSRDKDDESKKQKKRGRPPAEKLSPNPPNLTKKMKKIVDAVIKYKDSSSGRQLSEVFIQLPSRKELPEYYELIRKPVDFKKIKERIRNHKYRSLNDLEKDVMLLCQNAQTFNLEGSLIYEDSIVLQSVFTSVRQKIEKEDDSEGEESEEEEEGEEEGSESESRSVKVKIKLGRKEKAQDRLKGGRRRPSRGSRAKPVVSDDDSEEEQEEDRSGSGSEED

| Compound | Dmax [1] | DC50 [2] | DC50 [1] | BRM HiBit Degradation Maximum (%) [2] |
| --- | --- | --- | --- | --- |
| CNC(=O)[C@@H]1C[C@@H](O)CN1C(=O)C(c1cc(N2CC3(CN(c4ccc5cc(-c6ccccc6O)nnc5c4)C3)C2)no1)C(C)C (stereo partly drawn) [Compound 114, (2S,4R)-4-hydroxy-1-(2-(3-(6-(3-(2-hydroxyphenyl)cinnolin-7-yl)-2,6-diazaspiro[3.3]heptan-2-yl)isoxazol-5-yl)-3-methylbutanoyl)-N-methylpyrrolidine-2-carboxamide] | < 50% | < 0.01 µM | – | A (“A” indicates maximum degradation ≥75%) |
| Cc1ncsc1-c1ccc([C@H](C)NC(=O)[C@@H]2C[C@@H](O)CN2C(=O)[C@@H](c2cc(N3CCN([C@H]4CCN(c5ccc6cc(-c7ccccc7O)nnc6c5)CC4(F)F)CC3)no2)C(C)C)cc1 [Compound 115, (2S,4R)-1-((R)-2-(3-(4-((S)-3,3-difluoro-1-(3-(2-hydroxyphenyl)cinnolin-7-yl)piperidin-4-yl)piperazin-1-yl)isoxazol-5-yl)-3-methylbutanoyl)-4-hydroxy-N-((S)-1-(4-(4-methylthiazol-5-yl)phenyl)ethyl)pyrrolidine-2-carboxamide] | > 75% | < 0.01 µM | < 0.01 µM | A (“A” indicates maximum degradation ≥75%) |
| CC(C)[C@@H](C(=O)N1C[C@H](O)C[C@H]1C(=O)N[C@@H](C)c1ccccc1)c1cc(N2CC[C@@H](c3ccc4cc(-c5ccccc5O)nnc4c3)C2)no1 [Compound 116, (2S,4R)-4-hydroxy-1-((R)-2-(3-((S)-3-(3-(2-hydroxyphenyl)cinnolin-7-yl)pyrrolidin-1-yl)isoxazol-5-yl)-3-methylbutanoyl)-N-((S)-1-phenylethyl)pyrrolidine-2-carboxamide] | < 50% | < 0.01 µM | – | A (“A” indicates maximum degradation ≥75%) |
| CC(C)[C@@H](C(=O)N1C[C@H](O)C[C@H]1C(=O)N[C@@H](C)c1ccccc1)c1cc(N2CC[C@H](c3ccc4cc(-c5ccccc5O)nnc4c3)C2)no1 [Compound 118, (2S,4R)-4-hydroxy-1-((R)-2-(3-((R)-3-(3-(2-hydroxyphenyl)cinnolin-7-yl)pyrrolidin-1-yl)isoxazol-5-yl)-3-methylbutanoyl)-N-((S)-1-phenylethyl)pyrrolidine-2-carboxamide] | < 50% | > 0.01 µM | – | A (“A” indicates maximum degradation ≥75%) |
| Cc1cc2cc(-c3ccccc3O)nnc2cc1N1CC2(CN(c3cc([C@H](C(=O)N4C[C@H](O)C[C@H]4C(=O)N[C@@H](C)c4ccc(-c5scnc5C)cc4)C(C)C)on3)C2)C1 [Compound 121, (2S,4R)-4-hydroxy-1-((R)-2-(3-(6-(3-(2-hydroxyphenyl)-6-methylcinnolin-7-yl)-2,6-diazaspiro[3.3]heptan-2-yl)isoxazol-5-yl)-3-methylbutanoyl)-N-((S)-1-(4-(4-methylthiazol-5-yl)phenyl)ethyl)pyrrolidine-2-carboxamide] | > 75% | < 0.01 µM | < 0.01 µM | A (“A” indicates maximum degradation ≥75%) |
| Cc1ncsc1-c1ccc([C@H](C)NC(=O)[C@@H]2C[C@@H](O)CN2C(=O)[C@@H](c2cc(N3CCC4(CC3)CC(N(C)c3ccc5cc(-c6ccccc6O)nnc5c3)C4)no2)C(C)C)cc1 [Compound 122, (2S,4R)-4-hydroxy-1-((R)-2-(3-(2-((3-(2-hydroxyphenyl)cinnolin-7-yl)(methyl)amino)-7-azaspiro[3.5]nonan-7-yl)isoxazol-5-yl)-3-methylbutanoyl)-N-((S)-1-(4-(4-methylthiazol-5-yl)phenyl)ethyl)pyrrolidine-2-carboxamide] | > 75% | < 0.01 µM | < 0.01 µM | A (“A” indicates maximum degradation ≥75%) |
| Cc1ncsc1-c1ccc([C@H](C)NC(=O)[C@@H]2C[C@@H](O)CN2C(=O)[C@@H](c2cc(N3CCN([C@@H]4CCN(c5ccc6nnc(-c7ccccc7O)cc6c5)CC4(F)F)CC3)no2)C(C)C)cc1 [Compound 124, (2S,4R)-1-((R)-2-(3-(4-((R)-3,3-difluoro-1-(3-(2-hydroxyphenyl)cinnolin-6-yl)piperidin-4-yl)piperazin-1-yl)isoxazol-5-yl)-3-methylbutanoyl)-4-hydroxy-N-((S)-1-(4-(4-methylthiazol-5-yl)phenyl)ethyl)pyrrolidine-2-carboxamide] | > 75% | < 0.01 µM | < 0.01 µM | A (“A” indicates maximum degradation ≥75%) |
| Cc1ncsc1-c1ccc([C@H](C)NC(=O)[C@@H]2C[C@@H](O)CN2C(=O)[C@@H](c2cc(N3CC4(CN(c5cc(C6CC6)c6cc(-c7ccccc7O)nnc6c5)C4)C3)no2)C(C)C)cc1 [Compound 125, (2S,4R)-1-((R)-2-(3-(6-(5-cyclopropyl-3-(2-hydroxyphenyl)cinnolin-7-yl)-2,6-diazaspiro[3.3]heptan-2-yl)isoxazol-5-yl)-3-methylbutanoyl)-4-hydroxy-N-((S)-1-(4-(4-methylthiazol-5-yl)phenyl)ethyl)pyrrolidine-2-carboxamide] | < 50% | < 0.01 µM | – | A (“A” indicates maximum degradation ≥75%) |

Now from value to compound, other results behind:

| Dmax [1] | DC50 [2] | DC50 [1] | Compound | BRM HiBit Degradation Maximum (%) [2] |
| --- | --- | --- | --- | --- |
| < 50% | < 0.01 µM | – | CC(C)C(C(=O)N1C[C@H](O)C[C@H]1C(=O)N[C@@H](C)c1ccc(Cl)cc1)c1cc(N2CC3(CN(c4ccc5cc(-c6ccccc6O)nnc5c4)C3)C2)no1 (stereo partly drawn) [Compound 113, (2S,4R)-N-((S)-1-(4-chlorophenyl)ethyl)-4-hydroxy-1-(2-(3-(6-(3-(2-hydroxyphenyl)cinnolin-7-yl)-2,6-diazaspiro[3.3]heptan-2-yl)isoxazol-5-yl)-3-methylbutanoyl)pyrrolidine-2-carboxamide] | A (“A” indicates maximum degradation ≥75%) |
| < 50% | < 0.01 µM | – | Cc1ncsc1-c1ccc(CNC(=O)[C@@H]2C[C@@H](O)CN2C(=O)C(c2cc(N3CC4(CN(c5ccc6cc(-c7ccccc7O)nnc6c5)C4)C3)no2)C(C)C)cc1 (stereo partly drawn) [Compound 117, (2S,4R)-4-hydroxy-1-(2-(3-(6-(3-(2-hydroxyphenyl)cinnolin-7-yl)-2,6-diazaspiro[3.3]heptan-2-yl)isoxazol-5-yl)-3-methylbutanoyl)-N-(4-(4-methylthiazol-5-yl)benzyl)pyrrolidine-2-carboxamide] | A (“A” indicates maximum degradation ≥75%) |
| < 50% | > 0.01 µM | – | CC(C)C(C(=O)N1C[C@H](O)C[C@H]1C(=O)NCC12CC(C1)C2)c1cc(N2CC3(CN(c4ccc5cc(-c6ccccc6O)nnc5c4)C3)C2)no1 (stereo partly drawn) [Compound 119, (2S,4R)-N-(bicyclo[1.1.1]pentan-1-ylmethyl)-4-hydroxy-1-(2-(3-(6-(3-(2-hydroxyphenyl)cinnolin-7-yl)-2,6-diazaspiro[3.3]heptan-2-yl)isoxazol-5-yl)-3-methylbutanoyl)pyrrolidine-2-carboxamide] | A (“A” indicates maximum degradation ≥75%) |
| < 50% | > 0.01 µM | – | CC(C)C(C(=O)N1C[C@H](O)C[C@H]1C(=O)N[C@@H](C)c1ccccn1)c1cc(N2CC3(CN(c4ccc5cc(-c6ccccc6O)nnc5c4)C3)C2)no1 (stereo partly drawn) [Compound 120, (2S,4R)-4-hydroxy-1-(2-(3-(6-(3-(2-hydroxyphenyl)cinnolin-7-yl)-2,6-diazaspiro[3.3]heptan-2-yl)isoxazol-5-yl)-3-methylbutanoyl)-N-((S)-1-(pyridin-2-yl)ethyl)pyrrolidine-2-carboxamide] | A (“A” indicates maximum degradation ≥75%) |
| > 75% | < 0.01 µM | < 0.01 µM | Cc1ncsc1-c1ccc([C@H](C)NC(=O)[C@@H]2C[C@@H](O)CN2C(=O)[C@@H](c2cc(N3CCN([C@H]4CCN(c5ccc6nnc(-c7ccccc7O)cc6c5)CC4(F)F)CC3)no2)C(C)C)cc1 [Compound 123, (2S,4R)-1-((R)-2-(3-(4-((S)-3,3-difluoro-1-(3-(2-hydroxyphenyl)cinnolin-6-yl)piperidin-4-yl)piperazin-1-yl)isoxazol-5-yl)-3-methylbutanoyl)-4-hydroxy-N-((S)-1-(4-(4-methylthiazol-5-yl)phenyl)ethyl)pyrrolidine-2-carboxamide] | A (“A” indicates maximum degradation ≥75%) |
| > 75% | < 0.01 µM | < 0.01 µM | Cc1ncsc1-c1ccc([C@H](C)NC(=O)[C@@H]2C[C@@H](O)CN2C(=O)[C@@H](c2cc(N3CC4(C3)CN(c3cc5nnc(-c6ccccc6O)cc5cc3C3CC3)C4)no2)C(C)C)cc1 [Compound 126, (2S,4R)-1-((R)-2-(3-(6-(6-cyclopropyl-3-(2-hydroxyphenyl)cinnolin-7-yl)-2,6-diazaspiro[3.3]heptan-2-yl)isoxazol-5-yl)-3-methylbutanoyl)-4-hydroxy-N-((S)-1-(4-(4-methylthiazol-5-yl)phenyl)ethyl)pyrrolidine-2-carboxamide] | A (“A” indicates maximum degradation ≥75%) |
| > 75% | < 0.01 µM | < 0.01 µM | Cc1ncsc1-c1ccc([C@H](C)NC(=O)[C@@H]2C[C@@H](O)CN2C(=O)[C@@H](c2cc(N3CC4(CN(c5ccc6cc(-c7ccccc7O)nnc6c5)CCO4)C3)no2)C(C)C)cc1 [Compound 127, (2S,4R)-4-hydroxy-1-((R)-2-(3-(8-(3-(2-hydroxyphenyl)cinnolin-7-yl)-5-oxa-2,8-diazaspiro[3.5]nonan-2-yl)isoxazol-5-yl)-3-methylbutanoyl)-N-((S)-1-(4-(4-methylthiazol-5-yl)phenyl)ethyl)pyrrolidine-2-carboxamide] | A (“A” indicates maximum degradation ≥75%) |
